logP and logD data for 38 compounds are collected here from the SangsterLogP compilation.

Assay in the first series: not given
Conditions: not given
The compound `CCOC(=O)c1n[nH]c2ccc(CC)cc2c1=O` registered a logP of 2.01. `CCC(C)NC(=O)C(C)=Cc1ccccc1` (stereo not drawn) returned a log partition coefficient (logP) of 3.08. The same measure, in the same setting: the value for `CCC(C)NC(=O)C(=Cc1ccccc1)NC(=O)c1ccccc1` (stereo not drawn) was 2.61; that for `O=NN(CCCl)C(=O)NC1CCCCCCCCCCC1` was 5.64. `CCSC(=O)Oc1cccc2cccnc12`: the logP worked out at 2.74. On to `FC(F)(F)CN(CC(F)(F)F)c1ccccc1`, for which the logP is 3.69. Same read-out and setting: the value for `CCC(C)c1cccc(C(C)C)c1O` (stereo not drawn) was 3.85; that for `O=NN(CCCl)C(=O)Nc1ccccc1` was 2.49; that for `C[C@]1(O)CC[C@H]2[C@@H]3CCC4=CC(=O)CC[C@]4(C)[C@@]3(F)[C@@H](O)C[C@@]21C` was 2.38. The compound `CCC(C)NC(=O)C=C(c1ccccc1)c1ccc(Cl)cc1` (stereo not drawn) gave a logP of 4.11. `FC(F)(F)CN(CC(F)(F)F)c1ccc(Br)cc1` registered a lipophilicity (logP) of 4.7. The same measure, in the same setting: the value for `COc1cccc(NC(=O)N(CCCl)N=O)c1` was 2.66. The compound `CC12CC3(C)CC(C)(C1)CC(NC(=O)N(CCCl)N=O)(C2)C3` registered a logP of 5.75. Still for that read-out and setting: the value for `CCC(C)NC(=O)C(=Cc1ccccc1)NC(C)=O` (stereo not drawn) was 1.76. The compound `[O-][n+]1cc(-c2ccccc2)ncc1-c1ccccc1` returned a logP of 3.27. The same measure, in the same setting: the value for `CC(=O)Nc1cccc2nccnc12` was 1.06; that for `CCC(C)NC(=O)C(=Cc1ccccc1)SC` (stereo not drawn) was 3.53. On the same count and under the same terms, the value for `CCC(C)c1cccc(C(C)CC)c1O` (stereo not drawn) was 4.38; that for `COc1ccnc(C#N)n1` was 0.86; that for `CC(=O)Nc1cnc2ccccc2n1` was 1.53. The same measure, in the same setting: the value for `CCC(C)NC(=O)C(C)=Cc1ccc(Cl)cc1` (stereo not drawn) was 3.63; that for `CCC(C)NC(=O)C=C(N)c1ccc(Cl)cc1` (stereo not drawn) was 2.85; that for `CCCC(=CC(=O)NC(C)CC)c1ccc(Cl)cc1` (stereo not drawn) was 4.34. `O=NN(CCCl)C(=O)Nc1ccc(Cl)cc1` gave a logP of 3.16.

For `COc1cc(S(C)=O)ccc1-c1cn2cccnc2n1` (stereo not drawn), the lipophilicity (logP) was found to be 0.64. Compound `CC(=O)Nc1ccc2nccnc2c1` gave a logP of 1.

For `C[C@]12CCC(=O)C=C1CC[C@@H]1[C@@H]2C(=O)C[C@@]2(C)[C@H]1CC[C@]2(O)C(=O)CO`, the log partition coefficient (logP) turned out to be 1.64. On to `CCCCOc1ccc(O)cc1`, for which the logP came out at 2.9.

A short description of a further series: method code SF, from Hansch, C. & Leo, A. (1987). Log P database [Dataset]. Pomona College Medicinal Chemistry Project.
Conditions: not given
In turn, `CCOC(=O)C(=Cc1ccccc1Cl)C(C)=O` had a log partition coefficient (logP) of 2.84. Same read-out and setting: the value for `COC(=O)c1c(C)n(C)c2c1c1c(O)c3c(O)c(C)c4c(c32)C(=O)C(C)(OC=CC(OC)C(C)C(OC(C)=O)C(C)C(O)C(C)C(O)C(C)C=CC=C(C)C(=O)N1)O4` (stereo not drawn) was 1.46. Still for that read-out and setting: the value for `c1ccc2[nH]nnc2c1` was 1.33; that for `O=C(NP(=O)(N1CC1)N1CC1)c1cc(I)ccc1I` was 1.35. `CN(C)C(=O)Cc1ccsc1`: the logP was 0.65. Still for that read-out and setting: the value for `CC(C)c1cccc(C(C)C)c1N` was 3.18; that for `CCc1ccccc1NC(C)=O` was 1.33; that for `CCC(C)NP(=O)(OC)Oc1cc(Cl)c(Cl)cc1Cl` (stereo not drawn) was 3.99.

Still in this series, the particulars now being: pH 3.0.
As for `CC1=C(C(=O)O)N2C(=O)[C@@H](NC(=O)Cc3cccs3)[C@H]2SC1`, the pH-dependent lipophilicity (logD) turned out to be 0.61.

Still in this series, the particulars now being: pH 7.4.
Consider `COc1ccccc1/N=N/N(C)C`, for which the logD was 2.34.
